Source: patent publication US10919882B2, “Compounds for use in synthesis of peptidomimetics” (THE FEINSTEIN INSTITUTES FOR MEDICAL RESEARCH, priority 2019, dated 2021)

Assay: Stability of HOBt aza building blocks with Boc, Fmoc or Phth alpha-amino protection
Assay type: physicochemical
Source text: Assessing the Compatibility of HOBt Aza Building Blocks in the Presence of Traditional Alpha Amino Protecting Groups (e.g. Phth, Fmoc and Boc) with Other Protecting Synthesis and Stability
The issues with stability were observed when the N-1 is protected with R=Boc or Fmoc and R′═H. This is due to the presence of NH that leads to undesirable intramolecular cyclization and formation oxadiazoles (Future Med. Chem. (2011) 3(9), 1139-1164) Org. Biomol. Chem., 2015, 13, 59-63. Boc and Fmoc form an unwanted side reaction of carboxyanhydride in peptide synthesis with acid halogenation reagent (Acc. Chem. Res. 1996, 29, 268-274; J. Am. Chem. Soc. 1996, 118, 9796-9797) and in azapeptide synthesis with hydrazine component, the oxadiazalone will be formed (Journal of Peptide Science 2013, 19, 725-729).

Isolated Yield and Stability (solid form) (isolated product as solid): Stable white solid
SMILES: O=C(On1nnc2ccccc21)N(Cc1ccccc1)N1C(=O)c2ccccc2C1=O
Isolated Yield and Stability (in solution) (in solution / organic solvents, room temperature): Stable in organic solvents such as acetone, dichloromethane, acetonitrile, DMF at room temperature for weeks
